Calls of active or inactive are those of the source. No cut-off for these calls is given here.
Columns and labels:
[1] = test system: Staphylococcus aureus; experiment: Antibacterial activity against methicillin resistant Staphylococcus aureus 20 infected in Kunming mouse skin abscess model assessed as reduction in abscess size at 5 mg/kg, sc measured after 2 hrs; assay type: functional, organism-based
[2] = test system: Staphylococcus aureus; experiment: Inhibition of protein synthesis in methicillin resistant Staphylococcus aureus N315 at 4 ug/ml incubated for 4 hrs by RNA-sequencing analysis; assay type: functional, organism-based; conditions: dose 4.0 µg/ml
[3] = Toxicity in Kunming mouse skin abscess model infected with methicillin resistant Staphylococcus aureus assessed as liver damage at 5 to 10 mg/kg, sc measured after 2 hrs by H and E staining based assay; assay type: organism-based; conditions: in vivo, dose 5-10 mg/kg
[4] = Toxicity in Kunming mouse assessed as skin abnormalities at 20 mg/kg, sc measured after 24 hrs; assay type: organism-based; conditions: in vivo
[5] = test system: Staphylococcus aureus; experiment: Upregulation of cwrA gene expression in methicillin resistant Staphylococcus aureus N315 at 4 ug/ml incubated for 4 hrs by RNA-sequencing analysis; assay type: functional; conditions: dose 4.0 µg/ml
[6] = Toxicity in Kunming mouse assessed as change in white blood cell counts at 20 mg/kg, sc measured after 24 hrs; assay type: organism-based; conditions: in vivo
[7] = Selectivity index, ratio of HC50 for sheep RBC to MIC for Staphylococcus aureus ATCC 29213; assay type: toxicity; conditions: sheep red blood cells, read-out: Selectivity Index
[8] = test system: Cell membrane; experiment: Induction of membrane disruption in methicillin resistant Staphylococcus aureus 20 assessed as viable cells with intact membrane at 8 ug/ml incubated for 2 hrs by SYTO9/PI staining based flow cytometry analysis (reference value: 98.7%); assay type: cell membranes; conditions: dose 8.0 µg/ml
[9] = test system: Cell membrane; experiment: Induction of membrane disruption in methicillin resistant Staphylococcus aureus 20 assessed as viable cells with intact membrane at 32 ug/ml incubated for 2 hrs by SYTO9/PI staining based flow cytometry analysis (reference value: 98.7%); assay type: cell membranes; conditions: dose 32.0 µg/ml
[10] = test system: Staphylococcus aureus; experiment: Inhibition of enzyme activity in methicillin resistant Staphylococcus aureus N315 at 4 ug/ml incubated for 4 hrs by RNA-sequencing analysis; assay type: functional, organism-based; conditions: dose 4.0 µg/ml
[11] = test system: Staphylococcus aureus; experiment: Bactericidal activity against Staphylococcus aureus ATCC 29213 at 8 times MIC within 6 hrs by time kill assay; assay type: functional, organism-based
[12] = Toxicity in Kunming mouse skin abscess model infected with methicillin resistant Staphylococcus aureus assessed as kidney damage at 5 to 10 mg/kg, sc measured after 2 hrs by H and E staining based assay; assay type: organism-based; conditions: in vivo, dose 5-10 mg/kg
[13] = Toxicity in Kunming mouse assessed as change in urea level at 20 mg/kg, sc measured after 24 hrs; assay type: organism-based; conditions: in vivo
[14] = test system: L02; experiment: Cytotoxicity against human L02 cells assessed as reduction in cell viability incubated for 24 hrs by CCK8 assay; assay type: toxicity, cell-based; conditions: l02, 24 h
[15] = test system: Cell membrane; experiment: Induction of membrane disruption in methicillin resistant Staphylococcus aureus 20 assessed as viable cells with intact membrane at 16 ug/ml incubated for 2 hrs by SYTO9/PI staining based flow cytometry analysis (reference value: 98.7%); assay type: cell membranes; conditions: dose 16.0 µg/ml
[16] = test system: Cell membrane; experiment: Induction of membrane depolarization in methicillin resistant Staphylococcus aureus 20 assessed as fold increase in fluorescence intensity at 32 times MIC measured at 2 mins interval over 20 mins by DiSC3(5) staining based assay relative to control; assay type: cell membranes
[17] = Toxicity in Kunming mouse assessed as change in platelet count at 20 mg/kg, sc measured after 24 hrs; assay type: organism-based; conditions: in vivo
[18] = Toxicity in Kunming mouse assessed as lung abnormalities at 10 mg/kg, sc measured after 24 hrs; assay type: organism-based; conditions: in vivo
[19] = Toxicity in Kunming mouse skin abscess model infected with methicillin resistant Staphylococcus aureus assessed as lung damage at 5 to 10 mg/kg, sc measured after 2 hrs by H and E staining based assay; assay type: organism-based; conditions: in vivo, dose 5-10 mg/kg
[20] = Toxicity in Kunming mouse assessed as liver abnormalities at 10 mg/kg, sc measured after 24 hrs; assay type: organism-based; conditions: in vivo
[21] = test system: Staphylococcus aureus; experiment: Inhibition of proline synthesis in methicillin resistant Staphylococcus aureus N315 at 4 ug/ml incubated for 4 hrs by RNA-sequencing analysis; assay type: functional, organism-based; conditions: dose 4.0 µg/ml
[22] = test system: Staphylococcus aureus; experiment: Antibacterial activity against methicillin resistant Staphylococcus aureus 20 infected in Kunming mouse skin abscess model assessed as reduction in inflammatory cell infiltration in subcutaneous layer at 10 mg/kg, sc measured after 2 hrs; assay type: functional, organism-based
[23] = test system: Staphylococcus aureus; experiment: Inhibition of arginine synthesis in methicillin resistant Staphylococcus aureus N315 at 4 ug/ml incubated for 4 hrs by RNA-sequencing analysis; assay type: functional, organism-based; conditions: dose 4.0 µg/ml
[24] = test system: Cell membrane; experiment: Induction of membrane disruption in methicillin resistant Staphylococcus aureus 20 assessed as membrane rupture at 16 times MIC incubated for 4 hrs by SEM analysis
[25] = test system: Staphylococcus aureus; experiment: Antibacterial activity against methicillin resistant Staphylococcus aureus M11 incubated for 16 to 18 hrs by broth dilution method; assay type: functional; conditions: time 16-18 hrs
[26] = test system: Staphylococcus aureus; experiment: Effect on ABC transporter protein gene expression in methicillin resistant Staphylococcus aureus N315 at 4 ug/ml incubated for 4 hrs by RNA-sequencing analysis; assay type: functional; conditions: dose 4.0 µg/ml
[27] = test system: Staphylococcus aureus; experiment: Downregulation of sasA gene expression in methicillin resistant Staphylococcus aureus N315 at 4 ug/ml incubated for 4 hrs by RNA-sequencing analysis; assay type: functional; conditions: dose 4.0 µg/ml
[28] = Toxicity in Kunming mouse skin abscess model infected with methicillin resistant Staphylococcus aureus assessed as spleen damage at 5 to 10 mg/kg, sc measured after 2 hrs by H and E staining based assay; assay type: organism-based; conditions: in vivo, dose 5-10 mg/kg
[29] = Toxicity in Kunming mouse skin abscess model infected with methicillin resistant Staphylococcus aureus assessed as heart damage at 5 to 10 mg/kg, sc measured after 2 hrs by H and E staining based assay; assay type: organism-based; conditions: in vivo, dose 5-10 mg/kg
[30] = test system: Staphylococcus aureus; experiment: Antibacterial activity against methicillin resistant Staphylococcus aureus M22 incubated for 16 to 18 hrs by broth dilution method; assay type: functional; conditions: time 16-18 hrs
[31] = Toxicity in Kunming mouse assessed as skin redness at 40 to 80 mg/kg, sc measured after 24 hrs; assay type: organism-based; conditions: in vivo, dose 40-80 mg/kg
[32] = test system: Staphylococcus aureus; experiment: Antibacterial activity against methicillin resistant Staphylococcus aureus 20 infected in Kunming mouse skin abscess model assessed as reduction in IL-6 level at 5 to 10 mg/kg, sc measured after 2 hrs by ELISA; assay type: functional, organism-based; conditions: dose 5-10 mg/kg
[33] = test system: Cell membrane; experiment: Induction of membrane permeability in methicillin resistant Staphylococcus aureus 20 assessed as broken cell membrane by measuring increased fluorescence intensity at 32 ug/ml measured at 2 mins interval over 20 mins by SYTOX green staining based assay; assay type: cell membranes; conditions: dose 32.0 µg/ml
[34] = test system: Staphylococcus aureus; experiment: Antibacterial activity against methicillin resistant Staphylococcus aureus 20 infected in Kunming mouse skin abscess model assessed as reduction in bacterial load at 10 mg/kg, sc measured after 2 hrs; assay type: functional; parameters: scale not given: the % may be the effect or the level left
[35] = test system: Staphylococcus aureus; experiment: Antibacterial activity against methicillin resistant Staphylococcus aureus 20 infected in Kunming mouse skin abscess model assessed as reduction in bacterial load at 5 mg/kg, sc measured after 2 hrs; assay type: functional; parameters: scale not given: the % may be the effect or the level left
[36] = test system: Staphylococcus aureus; experiment: Antibacterial activity against methicillin resistant Staphylococcus aureus M23 incubated for 16 to 18 hrs by broth dilution method; assay type: functional; conditions: time 16-18 hrs
[37] = Toxicity in Kunming mouse assessed as kidney abnormalities at 10 mg/kg, sc measured after 24 hrs; assay type: organism-based; conditions: in vivo
[38] = test system: Staphylococcus aureus; experiment: Upregulation of gpsB gene expression in methicillin resistant Staphylococcus aureus N315 at 4 ug/ml incubated for 4 hrs by RNA-sequencing analysis; assay type: functional; conditions: dose 4.0 µg/ml
[39] = test system: Staphylococcus aureus; experiment: Antibacterial activity against methicillin resistant Staphylococcus aureus M16 incubated for 16 to 18 hrs by broth dilution method; assay type: functional; conditions: time 16-18 hrs
[40] = test system: Staphylococcus aureus; experiment: Disruption of redox process in methicillin resistant Staphylococcus aureus N315 at 4 ug/ml incubated for 4 hrs by RNA-sequencing analysis; assay type: functional, organism-based; conditions: dose 4.0 µg/ml

C=CCc1cc(-c2ccc(OCCC[N+](C)(C)CC(=O)NCCCC)c(CC=C)c2)c2oc(-c3c(Cl)cccc3Cl)nc2c1.[Br-]
Activity [1]: Active
inhibition [2]: Active
Activity [3]: Non-Toxic
Activity [4]: Non-Toxic
Activity [5]: Active
Activity [6]: Non-Toxic
selectivity ratio [7]: 54.5
Activity [8]: 61.6%
Activity [9]: 0.33%
Activity [10]: Active
Activity [11]: Active
Activity [12]: Non-Toxic
Activity [13]: Non-Toxic
Activity [14]: Dose-Dependent Effect
Activity [15]: 0.17%
fold change (FC) [16]: 8
Activity [17]: Non-Toxic
Activity [18]: Non-Toxic
Activity [19]: Non-Toxic
Activity [20]: Non-Toxic
inhibition [21]: Active
Activity [22]: Active
inhibition [23]: Active
Activity [24]: Active
MIC [25]: 4 µg/mL
Activity [26]: Active
Activity [27]: Active
Activity [28]: Non-Toxic
Activity [29]: Non-Toxic
MIC [30]: 2 µg/mL
Activity [31]: Toxic
Activity [32]: Active
Activity [33]: Active
Activity [34]: 96.63%
Activity [35]: 96.54%
MIC [36]: 4 µg/mL
Activity [37]: Non-Toxic
Activity [38]: Active
MIC [39]: 2 µg/mL
Activity [40]: Active
